# Assay results from article PMC6968521, “Novel CDKs inhibitors for the treatment of solid tumour by simultaneously regulating the cell cycle and transcription control” (Journal of Enzyme Inhibition and Medicinal Chemistry, 2020).
# What was measured:
# CDK4 = target: T1, CDK4 (Homo sapiens, UniProt P11802); experiment: Kinase inhibition assay (KinaseProfiler, Eurofins), CDK4; format: biochemical
# T1 construct: purchased Eurofins (KinaseProfiler service)
# Method: (§1) Kinase inhibition profiles were determined using KinaseProfiler services provided by Eurofins, and ATP concentrations used the Km of corresponding kinases.
# H460 cells = experiment: CCK-8 cytotoxicity assay, H460; format: cell-based; conditions: Homo sapiens, NCI-H460; CCK-8, 72 h incubation, three independent experiments; read-out: In vitro cell growth inhibition IC50, H460
# Method: (§2) All the human cancer cell lines were obtained from ATCC. Cells were cultured in RPMI-1640 (BioInd) medium according to the instructions from ATCC, with the medium containing 10% FBS (BioInd), 1% antibiotics (penicillin and streptomycin) at 37 °C in an atmosphere of 5% CO2.
# (§3) Cytotoxicity assay were conducted as described previously using a Cell Counting Kit-8 (CCK-8) assay (#CK04, Dojindo, Kumamoto, Japan)[37].
# A549 cells [1] = experiment: Cell cycle assay (propidium iodide, flow cytometry), A549; format: cell-based, human; conditions: 24 h treatment, vs DMSO
# Method: (§4) Cells were harvested and washed with phosphate buffered saline (PBS) for three times and then fixed with ice cold 75% ethanol overnight. The fixed cells were then washed with PBS and stained with propidium iodide ([…]) in the presence of RNase A (0.5 mg) for 30 min at 37 °C. The stained cells were then subjected to flow cytometry (Modfit, BD) for cell cycle analysis.
# T-47D cells = experiment: CCK-8 cytotoxicity assay, T-47D; format: cell-based; conditions: Homo sapiens, T47D; CCK-8, 72 h incubation, three independent experiments; read-out: In vitro cell growth inhibition IC50, T-47D
# Method: as §2, §3
# A549 cells [2] = experiment: CCK-8 cytotoxicity assay, A549; format: cell-based; conditions: Homo sapiens, CCK-8, 72 h incubation, three independent experiments, read-out: In vitro cell growth inhibition IC50, A549
# Method: as §2, §3
# H1299 cells = experiment: CCK-8 cytotoxicity assay, H1299; format: cell-based; conditions: Homo sapiens, NCI-H1299; CCK-8, 72 h incubation, three independent experiments; read-out: In vitro cell growth inhibition IC50, H1299
# Method: as §2, §3
# [3] = test system: RNAPII CTD Ser2 and Ser5 phosphorylation in MCF7 cells; experiment: Western blotting of RNAPII CTD phosphorylation, MCF7; format: cell-based, human; conditions: 24 h, vs DMSO
# Method: (§5) Protein extraction and western blotting methods were performed as described previously. The antibodies used in this study including anti-β-actin (Santa Cruz; sc-47778), anti-p53 (CST; #9282), anti-phospho-p53^Ser15 (CST; #9284), anti-Bax (CST; #2772), anti-Bcl-2 (BD; #51-6511GR), anti-Rb (CST; #9309), anti-phospho-Rb^Ser807/811 (CST; #8516), anti-phospho-Rb^Ser780 (CST; #9307), anti-RNA polymerase II CTD (Abcam; ab817), anti-RNA polymerase II CTD^phospho S5 (Abcam; ab5131), anti-RNA polymerase II CTD^phospho S2 (Abcam; ab5095).
# CDK9 = target: T2, CDK9 (Homo sapiens, UniProt P50750); experiment: Kinase inhibition assay (KinaseProfiler, Eurofins), CDK9; format: biochemical
# T2 construct: purchased Eurofins (KinaseProfiler service)
# T2 sequence (P50750 whole entry): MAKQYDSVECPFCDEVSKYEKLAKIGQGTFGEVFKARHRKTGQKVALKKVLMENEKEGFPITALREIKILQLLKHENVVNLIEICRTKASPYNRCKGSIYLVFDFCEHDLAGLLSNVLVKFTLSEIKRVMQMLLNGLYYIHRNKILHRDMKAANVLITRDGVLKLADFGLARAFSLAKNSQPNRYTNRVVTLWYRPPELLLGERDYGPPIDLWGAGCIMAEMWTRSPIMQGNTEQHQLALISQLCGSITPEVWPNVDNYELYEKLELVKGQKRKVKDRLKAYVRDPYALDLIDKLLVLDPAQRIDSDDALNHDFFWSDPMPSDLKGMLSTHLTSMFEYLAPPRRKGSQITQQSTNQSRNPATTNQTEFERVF
# T2 sequence (O60563 whole entry partner): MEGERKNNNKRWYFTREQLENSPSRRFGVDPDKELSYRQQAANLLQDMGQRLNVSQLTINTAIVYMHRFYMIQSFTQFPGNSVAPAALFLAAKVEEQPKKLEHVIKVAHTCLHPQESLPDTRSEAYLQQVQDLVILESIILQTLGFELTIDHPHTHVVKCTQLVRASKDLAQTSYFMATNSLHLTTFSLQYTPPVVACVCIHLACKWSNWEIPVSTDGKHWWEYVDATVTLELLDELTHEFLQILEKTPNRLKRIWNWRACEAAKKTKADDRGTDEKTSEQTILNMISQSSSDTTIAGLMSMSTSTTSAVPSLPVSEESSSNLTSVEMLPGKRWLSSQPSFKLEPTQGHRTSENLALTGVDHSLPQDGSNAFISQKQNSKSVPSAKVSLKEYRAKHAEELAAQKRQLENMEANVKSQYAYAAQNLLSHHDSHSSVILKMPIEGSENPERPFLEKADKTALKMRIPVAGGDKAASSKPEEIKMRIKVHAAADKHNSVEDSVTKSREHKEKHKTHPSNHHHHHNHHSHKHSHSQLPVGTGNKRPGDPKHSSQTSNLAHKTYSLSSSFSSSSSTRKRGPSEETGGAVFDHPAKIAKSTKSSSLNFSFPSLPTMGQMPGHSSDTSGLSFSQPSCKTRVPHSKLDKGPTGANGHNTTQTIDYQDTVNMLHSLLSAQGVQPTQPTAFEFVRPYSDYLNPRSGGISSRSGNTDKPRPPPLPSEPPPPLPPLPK
# Method: as §1
# 4T1 breast cancer cells = experiment: CCK-8 cytotoxicity assay, 4T1; format: cell-based; conditions: CCK-8, 72 h incubation, three independent experiments; read-out: In vitro cell growth inhibition IC50, 4T1
# Method: as §2, §3
# CDK6 = target: T3, CDK6 (Homo sapiens, UniProt Q00534); experiment: Kinase inhibition assay (KinaseProfiler, Eurofins), CDK6; format: biochemical
# T3 construct: purchased Eurofins (KinaseProfiler service)
# T3 sequence (Q00534 whole entry): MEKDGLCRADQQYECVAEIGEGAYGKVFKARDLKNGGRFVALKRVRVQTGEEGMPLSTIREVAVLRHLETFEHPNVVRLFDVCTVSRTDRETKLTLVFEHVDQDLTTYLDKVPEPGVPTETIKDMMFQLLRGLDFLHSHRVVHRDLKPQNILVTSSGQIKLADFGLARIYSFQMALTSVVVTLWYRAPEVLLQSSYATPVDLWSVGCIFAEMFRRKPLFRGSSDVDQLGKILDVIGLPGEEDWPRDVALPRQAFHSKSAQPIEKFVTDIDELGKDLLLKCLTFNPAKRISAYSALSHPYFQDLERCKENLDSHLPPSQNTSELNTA
# T3 sequence (P30281 whole entry partner): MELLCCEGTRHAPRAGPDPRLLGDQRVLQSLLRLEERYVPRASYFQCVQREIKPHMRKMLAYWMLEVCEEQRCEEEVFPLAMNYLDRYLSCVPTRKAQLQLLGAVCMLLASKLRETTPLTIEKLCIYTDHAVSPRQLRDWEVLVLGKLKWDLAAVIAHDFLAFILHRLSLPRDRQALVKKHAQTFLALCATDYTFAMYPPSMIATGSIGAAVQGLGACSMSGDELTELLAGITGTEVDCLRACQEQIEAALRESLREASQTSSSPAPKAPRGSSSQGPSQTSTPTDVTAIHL
# Method: as §1
# 4T1 homograft tumours = experiment: In vivo 4T1 homograft tumour model; conditions: for Tumour inhibition rate: oral gavage daily for 18 days, 4T1 homograft in BALB/c mice
# Method: 4T1 breast cancer cells (5 × 10^4) were injected in the mammary fat pads of 6 − 8 weeks old female BALB/c mice. Once the tumours grew to a volume of approximately 100–150 mm^3, they were placed into five treatment groups (n = 3, with a total tumour number of 15). The mice were treated daily for 18 days via oral gavage. Body weights and tumour size were determined every other day. Tumour measurements were found using a digital vernier calliper, and the volumes were determined using the following calculation: (short^2) × long × 0.5. Experiments were performed under an approved IACUC protocol according to federal and institutional guidelines and regulations. Inhibition rate of tumour growth was calculated using the following formula: 100 × {1 − [(tumour volumefinal − tumour volumeinitial) for X22-treated group]/[(tumour volumefinal − tumour volumeinitial) for the vehicle-treated group]}.
# MCF7 cells [4] = experiment: Cell cycle assay (propidium iodide, flow cytometry), MCF7; format: cell-based, human; conditions: 24 h treatment, vs DMSO
# Method: as §4
# MCF7 cells [5] = experiment: Annexin V-FITC/PI apoptosis assay, MCF7; format: cell-based, human; conditions: 0.1 to 0.5 µM, 48 h incubation
# Method: (§6) Cells at a density of 3 × 10^5 cells/mL were seeded in six-well plates and treated with compounds at different concentrations for 48 h. The cells were then harvested and washed twice with cold PBS. Then the cells were subjected to an Annexin V/PI Apoptosis Detection kit (BD Biosciences) for staining according to manufacture’s instructions, and finally analysed by flow cytometry (Modfit, BD).
# [6] = test system: RNAPII CTD Ser2 and Ser5 phosphorylation in A549 cells; experiment: Western blotting of RNAPII CTD phosphorylation, A549; format: cell-based, human; conditions: 24 h, vs DMSO
# Method: as §5
# A549 cells [7] = experiment: Annexin V-FITC/PI apoptosis assay, A549; format: cell-based, human; conditions: 48 h incubation, compared to DMSO or ribociclib
# Method: as §6
# MCF7 cells [8] = experiment: CCK-8 cytotoxicity assay, MCF7; format: cell-based; conditions: Homo sapiens, CCK-8, 72 h incubation, three independent experiments, read-out: In vitro cell growth inhibition IC50, MCF7
# Method: as §2, §3
# [9] = ATP at Km, mean of two independent experiments
# T1 sequence (P11802 whole entry): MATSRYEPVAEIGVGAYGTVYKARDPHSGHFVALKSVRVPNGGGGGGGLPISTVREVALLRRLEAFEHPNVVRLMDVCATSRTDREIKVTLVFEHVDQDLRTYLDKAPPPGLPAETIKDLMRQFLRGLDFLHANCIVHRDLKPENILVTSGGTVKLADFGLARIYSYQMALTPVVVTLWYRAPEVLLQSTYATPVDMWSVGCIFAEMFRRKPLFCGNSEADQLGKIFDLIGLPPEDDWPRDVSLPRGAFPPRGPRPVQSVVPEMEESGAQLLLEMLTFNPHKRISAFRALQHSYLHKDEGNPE
# T1 sequence (P30281 whole entry partner): as the sequence (P30281 whole entry partner) above
smiles,measurement,setting,value
CN(C)C(=O)c1cc2cnc(Nc3ccc(CS(=O)(=O)CCCCCCN=C=S)cc3)nc2n1C1CCCC1 [X22],inhibition at 1 µM,CDK4,97 ± 0.4%
same,IC50,CDK4; [9],30 ± 3.9 nM
same,IC50,H460 cells,1800 ± 340 nM
same,Effect on the cell cycle,A549 cells [1],blocked the cell cycle at G2/M phase
same,IC50,T-47D cells,110 ± 10 nM
same,IC50,A549 cells [2],210 ± 70 nM
same,IC50,H1299 cells,570 ± 70 nM
same,Concentration that effectively inhibited the phosphorylation of Ser2 and Ser5 of RNAPII CTD,[3],0.5 µM
same,inhibition at 1 µM,CDK9,98%
same,IC50,CDK9; [9],10 ± 1.3 nM
same,IC50,4T1 breast cancer cells,83 nM
same,inhibition at 1 µM,CDK6,91%
same,IC50,CDK6; [9],126 ± 20.6 nM
same,Tumour inhibition rate,4T1 homograft tumours; 15 mg/kg,51.8 ± 17.5%
same,Tumour inhibition rate,4T1 homograft tumours; 30 mg/kg,65.4 ± 11.7%
same,Tumour inhibition rate,4T1 homograft tumours; 60 mg/kg,70.3 ± 4.4%
same,Signs of toxicity (preliminary toxicity evaluation),"4T1 homograft tumours; 15, 30 or 60 mg/kg oral daily, 18 days, BALB/c mice",No obvious signs of toxicity
same,Average tumour weight of excised tumours,"4T1 homograft tumours; day 18, compared with other groups",obviously lighter
same,Mouse body weight,"4T1 homograft tumours; monitored over 18 days, among the five groups of mice",no significant difference
same,Effect on the cell cycle,MCF7 cells [4],blocked the cell cycle at G2/M phase
same,Increase of the percentages of apoptotic cells compared to DMSO-treated cells,MCF7 cells [5],2.2 to 3.5 fold change
same,Concentration that effectively inhibited the phosphorylation of Ser2 and Ser5 of RNAPII CTD,[6],1 µM
same,Proportion of apoptotic cells (Q2 late apoptotic and Q3 early apoptotic),A549 cells [7],dose-dependently increased
same,IC50,MCF7 cells [8],110 ± 70 nM
